Target: T1, mouse TLR7 (Mus musculus, UniProt P58681)
T1 sequence (P58681 27-1050): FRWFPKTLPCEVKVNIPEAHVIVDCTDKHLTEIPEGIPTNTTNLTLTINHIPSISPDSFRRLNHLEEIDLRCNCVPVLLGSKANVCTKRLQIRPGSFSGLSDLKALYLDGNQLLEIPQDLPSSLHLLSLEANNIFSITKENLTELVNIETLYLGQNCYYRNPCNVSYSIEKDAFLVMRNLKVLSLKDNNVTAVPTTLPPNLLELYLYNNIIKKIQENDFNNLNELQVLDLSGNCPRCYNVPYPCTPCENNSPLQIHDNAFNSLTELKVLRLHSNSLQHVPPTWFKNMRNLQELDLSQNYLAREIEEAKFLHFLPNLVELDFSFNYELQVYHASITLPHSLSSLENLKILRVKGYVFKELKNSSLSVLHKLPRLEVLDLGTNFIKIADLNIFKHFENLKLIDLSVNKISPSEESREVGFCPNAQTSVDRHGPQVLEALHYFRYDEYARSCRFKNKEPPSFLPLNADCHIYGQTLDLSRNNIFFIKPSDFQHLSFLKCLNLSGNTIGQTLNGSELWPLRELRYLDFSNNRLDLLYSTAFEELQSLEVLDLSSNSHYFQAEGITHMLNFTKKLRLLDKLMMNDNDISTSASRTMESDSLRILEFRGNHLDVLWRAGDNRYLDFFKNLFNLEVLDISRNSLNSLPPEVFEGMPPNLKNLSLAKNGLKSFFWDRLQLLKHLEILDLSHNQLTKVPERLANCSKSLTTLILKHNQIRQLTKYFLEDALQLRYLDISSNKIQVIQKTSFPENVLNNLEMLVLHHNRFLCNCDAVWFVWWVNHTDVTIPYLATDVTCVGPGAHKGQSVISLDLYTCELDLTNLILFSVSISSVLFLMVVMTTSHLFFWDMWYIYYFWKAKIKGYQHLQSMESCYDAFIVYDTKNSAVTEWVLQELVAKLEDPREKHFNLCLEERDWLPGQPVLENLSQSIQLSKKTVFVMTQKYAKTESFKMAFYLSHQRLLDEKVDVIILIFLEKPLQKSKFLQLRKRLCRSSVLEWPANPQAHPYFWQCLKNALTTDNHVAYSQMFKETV
Assay: Short-term in vivo (STIV) assay: oral dosing, R848 s.c., plasma IL-6
Set-up: female BALB/c mice (Jackson Labs, Bar Harbor, Me.) were dosed by oral gavage; tissue Jackson Labs; host or cells: living female BALB/c mice; plasma IL-6 after s.c. R848
Method in brief: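 Female BALB/c mice (6–8 weeks) dosed orally with compound in 0.5% aqueous methyl-cellulose at 33, 100 or 300 mg/kg; at various times afterwards given 15 ug R848 s.c. to stimulate TLR7. Plasma IL-6 measured by ELISA to gauge potency and duration of action.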

| Structure (SMILES) | % Suppression vs. Vehicle (3 h, 33 mg/kg) | % Suppression vs. Vehicle (3 h, 100 mg/kg) | % Suppression vs. Vehicle (3 h, 300 mg/kg) | % Suppression vs. Vehicle (6 h, 33 mg/kg) | % Suppression vs. Vehicle (6 h, 100 mg/kg) | % Suppression vs. Vehicle (6 h, 300 mg/kg) | % Suppression vs. Vehicle (19 h, 33 mg/kg) | % Suppression vs. Vehicle (19 h, 100 mg/kg) | % Suppression vs. Vehicle (19 h, 300 mg/kg) | also measured |
| --- | --- | --- | --- | --- | --- | --- | --- | --- | --- | --- |
| C[C@@H]1CN(c2ccc(C#N)c3ncccc23)C[C@H](C)O1 [ER-878952] | – | – | – | – | – | – | – | – | – | % Suppression vs. Vehicle (12 h, 200 mg/kg): 93%; % Suppression vs. Vehicle (12 h, 600 mg/kg): 95%; % Suppression vs. Vehicle (18 h, 200 mg/kg): 90%; % Suppression vs. Vehicle (18 h, 600 mg/kg): 96% |
| C[C@@H]1CN(c2ccc(C#N)c3ncccc23)C[C@H](CO)O1 [ER-885493, 5-((2R,6R)-2-(hydroxymethyl)-6-methylmorpholino)quinoline-8-carbonitrile] | – | – | – | – | – | – | – | – | – | % Suppression vs. Vehicle (3 h, 22 mg/kg): 39%; % Suppression vs. Vehicle (3 h, 67 mg/kg): 86%; % Suppression vs. Vehicle (3 h, 200 mg/kg): 88%; % Suppression vs. Vehicle (5 h, 22 mg/kg): 26%; % Suppression vs. Vehicle (5 h, 67 mg/kg): 99%; % Suppression vs. Vehicle (5 h, 200 mg/kg): 94%; % Suppression vs. Vehicle (12 h, 400 mg/kg): 76%; % Suppression vs. Vehicle (18 h, 22 mg/kg): 0%; % Suppression vs. Vehicle (18 h, 67 mg/kg): 5%; % Suppression vs. Vehicle (18 h, 200 mg/kg): 29% |
| CC1CN(c2ccc(C#N)c3ncccc23)CC(CN2CCCC2CO)O1 (centres unmarked) [ER-886814] | 93% | 100% | 100% | 57% | 100% | 100% | 14% | 19% | 100% | – |
| C[C@@H]1CN(c2ccc(C#N)c3ncccc23)C[C@H](CN2CC[C@H](O)C2)O1 [ER-886820] | 93% | 100% | 100% | 68% | 96% | 100% | 43% | 35% | 39% | – |
| C[C@@H]1CN(c2ccc(C#N)c3ncccc23)C[C@H](CN2CCC(O)CC2)O1 [ER-886953] | 99% | 99% | 99% | 99% | 99% | 99% | 23% | 45% | 99% | – |
| C[C@@H]1CN(c2ccc(C#N)c3ncccc23)C[C@H](CNC2CCCC2)O1 [ER-887145] | 97% | 99% | – | 91% | 99% | – | 0% | 96% | – | % Suppression vs. Vehicle (3 h after oral dose, 11 mg/kg): 67%; % Suppression vs. Vehicle (6 h, 11 mg/kg): 32%; % Suppression vs. Vehicle (19 h, 11 mg/kg): 0% |
| C[C@@H]1CN(C[C@H]2CN(c3ccc(C#N)c4ncccc34)C[C@@H](C)O2)CCN1 [ER-887269] | – | – | – | 95% | 100% | 98% | 9% | 58% | 95% | – |
| C[C@@H]1CN(c2ccc(C#N)c3ncccc23)C[C@H](CN2CCN(C)CC2)O1 [ER-887723] | – | – | – | 100% | 100% | 100% | 77% | 97% | 100% | – |
| CCCN1CCN(C[C@H]2CN(c3ccc(C#N)c4ncccc34)C[C@@H](C)O2)CC1 [ER-887724] | 99% | 99% | 99% | 99% | 99% | 99% | 83% | 91% | 99% | – |
| CC1CN(c2ccc(C#N)c3ncccc23)CC(CN2CCC(N(C)C)CC2)O1 (centres unmarked) [ER-887725] | 99% | 99% | 99% | 99% | 99% | 99% | 90% | 91% | 99% | – |
| C[C@@H]1CN(c2ccc(C#N)c3ncccc23)C[C@H](CN2CCC(N3CCCCC3)CC2)O1 [ER-887927, 5-((2S,6R)-2-([1,4′-bipiperidin]-1′-ylmethyl)-6-methylmorpholino)quinoline-8-carbonitrile] | – | – | – | 100% | 100% | 100% | 98% | 100% | 100% | % Suppression vs. Vehicle (19 h, 1.22 mg/kg): 56%; % Suppression vs. Vehicle (19 h, 3.67 mg/kg): 70%; % Suppression vs. Vehicle (19 h, 11 mg/kg): 94% |
| CC(=O)NC1CCN(CC2CN(c3ccc(C#N)c4ncccc34)CC(C)O2)CC1 (centres unmarked) [ER-888288] | 100% | 98% | – | 78% | 99% | 97% | 50% | 53% | – | % Suppression vs. Vehicle (24 h, 33 mg/kg): 14%; % Suppression vs. Vehicle (24 h, 100 mg/kg): 0%; % Suppression vs. Vehicle (24 h, 300 mg/kg): 55% |
| CC1CN(c2ccc(C#N)c3ncccc23)CC(CN2CCN(C)CC2C)O1 (centres unmarked) [ER-889556] | 100% | 100% | – | 100% | 100% | – | 47% | 98% | – | % Suppression vs. Vehicle (19 h, 1.22 mg/kg): 44%; % Suppression vs. Vehicle (19 h, 3.67 mg/kg): 89%; % Suppression vs. Vehicle (19 h, 11 mg/kg): 29% |
| CC1CN(c2ccc(C#N)c3ncccc23)CC(CN2CCC(NC(=O)C(C)C)CC2)O1 (centres unmarked) [ER-889745] | – | 93% | – | 94% | 84% | – | 0% | 52% | – | % Suppression vs. Vehicle (13 h, 33 mg/kg): 0%; % Suppression vs. Vehicle (13 h, 100 mg/kg): 99%; % Suppression vs. Vehicle (13 h, 300 mg/kg): 95%; % Suppression vs. Vehicle (24 h, 33 mg/kg): 0%; % Suppression vs. Vehicle (24 h, 100 mg/kg): 64%; % Suppression vs. Vehicle (24 h, 300 mg/kg): 100% |

— USRE47193E1, “Selectively substituted quinoline compounds” (EISAI R&D MANAGEMENT CO., LTD., priority 2013, dated 2019)
